Legend:
[1] = Circular dichroism of constrained peptide 3 and control peptide 1; assay type: physicochemical; conditions: aqueous buffer and TFE solutions
Description: The structure of constrained peptide 3 was studied with circular dichroism (“CD”). CD studies on the constrained peptide 3 and the control peptide 1 in 30 mM phosphate buffer pH 7.0 were performed to obtain a quantitative measure of the helical content. […] The relative percent helicity of peptides can theoretically be measured by the mean residue ellipticity at 222 nm (Lyu et al., “Alpha-helix Stabilization by Natural and Unnatural Amino Acids with Alkyl Side Chains,” Proc. Nat'l Acad. Sci. 88:5317-5320 (1991), which is hereby incorporated by reference in its entirety), although these estimates are not typically accurate for short helices.
CD spectra were recorded on an AVIV 202SF CD spectrometer equipped with a temperature controller using 1 mm path length cells. The scan speed was set to 5 nm/min and spectra were averaged over 5 scans. Spectral baselines were obtained under analogous conditions as that for the samples. All spectra are baseline subtracted, converted to a uniform scale of molar ellipticity, and replotted. The helix content of each peptide was determined from the mean residue CD at 222 nm, [θ]222 (deg cm^2 dmol^−1) corrected for the number of amide bonds (Chin et al., Proc. Nat'l Acad. Sci. U.S.A., 99:15416-15421 (2002); Chen et al., Biochemistry, 11:4120-4131 (1972), which are hereby incorporated by reference in their entirety). […]

[2] = Circular dichroism of Bak BH3 peptides in 20% TFE/PBS; assay type: physicochemical; conditions: 20% TFE in PBS, 50 μM, 25° C., Yang's method
Description: The α-helical conformation of constrained peptide 10a was determined by circular dichroism spectroscopy. […] The HBS α-helix 10a is roughly 46% helical as measured by Yang's method (Chen et al., Biochemistry, 11:4120-4131 (1972), which is hereby incorporated by reference in its entirety). […]
CD spectra were recorded on AVIV 202SF CD spectrometer equipped with a temperature controller using 1 mm length cells and a scan speed of 5 nm/min at 25° C. […] The helix content of each peptide was determined from the mean residue CD at 222 nm, [θ]222 (deg cm^2 dmol^−1) corrected for the number of amide bonds (Chen et al., Biochemistry 11:4120-4131 (1972), which is hereby incorporated by reference in its entirety). Percent helicity was calculated from ratio [θ]222/[θ]max, where [θ]max=−39500×[1−(2.57/n)]. The [θ]max for HBS α-helices is calculated to be −33155 for n=16 (number of amide bonds in the peptide).

Description for trypsin: At different time intervals, 100 μL of the above solution was taken out, quenched with 100 μL of 2% TFA aqueous solution, and then injected into reversed-phase HPLC to analyze the change in the area of the peptide peak compared to the area of internal control (tryptophan).

Compound | CD spectrum [1] | proteolysis in the presence of trypsin (trypsin) | percent helicity [2] [%]
COC(=O)[C@@H](NC(=O)[C@@H](NC(=O)[C@@H](NC(=O)[C@@H](NC(=O)[C@@H](NC(=O)[C@@H](NC(=O)[C@@H](NC(=O)[C@H](NCC=O)NC(C)=O)N[C@@H](C=O)CCC(=O)O)N[C@@H](C)C=O)N[C@@H](C)C=O)N[C@@H](C)C=O)N[C@@H](C)C=O)N[C@@H](C=O)CCC(=O)O)N[C@@H](C)C=O [peptide 1] | featureless spectrum |  | 
CC[C@H](C)[C@H](NC(=O)[C@H](C)NC(=O)[C@H](CC(C)C)NC(=O)[C@H](CCC(N)=O)NC(=O)[C@H](CCCNC(=N)N)NC(=O)CNC(=O)[C@@H](NC(=O)[C@H](CCC(N)=O)NC(=O)CNC(C)=O)C(C)C)C(=O)N[C@H](C(=O)NCC(=O)N[C@@H](CC(=O)O)C(=O)N[C@@H](CC(=O)O)C(=O)N[C@H](C(=O)N[C@@H](CC(N)=O)C(=O)N[C@@H](CCCNC(=N)N)C(N)=O)[C@@H](C)CC)[C@@H](C)CC [peptide 9a] |  | rapid proteolysis | ~26

— patent US7705118B2, “Methods for preparing internally constrained peptides and peptidomimetics” (New York University, priority 2004, dated 2010)
